The source of these data is patent publication US6683184B2, “Piperazine derivatives and process for the preparation thereof” (Samjin Pharmaceutical Co., Ltd., priority 1999, dated 2004).

Holding throughout (assay type): cell-based
Experiment [1] relates to SKMEL-2 (human melanoma). As to the kind of experiment: In vitro antitumor effect against human tumor cell lines, SRB assay, SKMEL-2. The conditions noted are these: SK-MEL-2 cells, 48 hours; for IC50: Homo sapiens, read-out: ED50 SK-MEL-2. As to the method:
(§1) In vitro antitumor effect against human tumor cell lines.
(§2) a. Human solid tumor cell lines, A549(non-small lung cell), SKMEL-2(melanoma), HCT-15(colon), SKOV-3(ovarian), XF-498(CNS) were cultured at 37° C. in 5% CO2 incubators using RPMI 1640 media containing 10% FBS, while they were transfer-cultured successively once or twice per week. Cell cultures were dissolved in a solution of 0.25% trypsin and 3 mM CDTA PBS(−) and then cells were separated from media which the cells were sticked on.
(§3) b. 5×10^3˜2×10^4 cells were added into each well of 96-well plate and cultured in 5% CO2 incubator, at 37° C., for 24 hours.
(§4) c. Each sample drug was dissolved in a little DMSO and diluted with the used medium to a prescribed concentration for experiments, wherein the final concentration of DMSO was controlled below 0.5%.
(§5) d. Medium of each well cultured for 24 hours as above b. was removed by aspiration. Each 200 μl of drug samples prepared in c. was added into each well and the wells were cultured for 48 hours. Tz(time zero) plates were collected at the point of time drugs were added.
(§6) e. According to the SRB assay method, cell fixing with TCA, staining with 0.4% SRB solution, washing with 1% acetic acid and elution of dye with 10 mM Tris solution were carried out on Tz plates and culture-ended plates, whereby OD values were measured at 520 nm.
(§7) a. Time zero(Tz) value was determined with measuring the SRB protein amounts of the Tz plates collected at the point of time drugs were added.
(§8) b. Control value(C) was determined with the OD values of wells untreated with a drug.
(§9) c. Drug-treated test value(T) was determined with the OD values of drug-treated wells.
(§10) d. Effects of drugs were estimated with growth stimulation, net growth inhibition, net killing etc., being calculated from Tz, C and T.
(§11) e. If T≧Tz, cellular response function was calculated by 100×(T−Tz)/(C−Tz), and if T<Tz, by 100×(T−Tz)/Tz.
A general note: The SRB assay estimates cell density from bound dye.

The subject of experiment [2] is XF 498 (human CNS). As to the kind of experiment: In vitro antitumor effect against human tumor cell lines, SRB assay, XF 498. To be noted: 48 hours; for IC50: Homo sapiens, XF498, XF-498 cells, read-out: ED50 XF-498; for ED50 XF-498: XF-498 cells. How it is done: as §1, §2, §3, §4, §5, §6, §7, §8, §9, §10, §11
In experiment [3] the test system is SKOV-3 (human ovarian). The experiment is described as follows: In vitro antitumor effect against human tumor cell lines, SRB assay, SKOV-3. The conditions noted are these: SK-OV-3 cells, 48 hours; for IC50: Homo sapiens, read-out: ED50 SK-OV-3. As to the method:
as §1, §2, §3, §4, §5, §6, §7, §8, §9, §10, §11

In experiment [4] the test system is A549 (human non-small lung cell). The experiment is described as follows: In vitro antitumor effect against human tumor cell lines, SRB assay, A549. To be noted: A549 cells, 48 hours; for IC50: Homo sapiens, read-out: ED50 A 549. How it is done: as §1, §2, §3, §4, §5, §6, §7, §8, §9, §10, §11
Experiment [5] has as its system HCT-15 (human colon). The experiment is described as follows: In vitro antitumor effect against human tumor cell lines, SRB assay, HCT-15. The conditions noted are these: HCT 15 cells, 48 hours; for IC50: Homo sapiens, read-out: ED50 HCT 15. How it is done: as §1, §2, §3, §4, §5, §6, §7, §8, §9, §10, §11

Converted amounts (≈) assume the structure as drawn.

For the compound `COc1cc2ccccc2cc1NC(=O)N1CCN(c2cc(Cl)cc(Cl)c2)CC1` [Example 89, 1-[(2-Methoxynaphth-3-yl)aminocarbonyl]-4-(3,5-dichlorophenyl)piperazine], the IC50 in experiment [1] came to 30 ng/mL (≈ 0.0697 µM); in experiment [2] it was 40 ng/mL (≈ 0.093 µM); in experiment [3] it was 200 ng/mL (≈ 0.465 µM); in experiment [4], 40 ng/mL (≈ 0.093 µM); in experiment [5], 50 ng/mL (≈ 0.116 µM).

As for `CCc1ccccc1N1CCN(C(=O)Nc2nc3ccccc3nc2OC)CC1` [Example 39, 1-[(2-Methoxyquinoxalin-3-yl)aminocarbonyl]-4-(2-ethylphenyl)piperazine], the IC50 was 70 ng/mL (≈ 0.179 µM) in experiment [1]; 140 ng/mL (≈ 0.358 µM) in experiment [2]; 330 ng/mL (≈ 0.843 µM) in experiment [3]; 100 ng/mL (≈ 0.255 µM) in experiment [4]; 60 ng/mL (≈ 0.153 µM) in experiment [5].

As to `COc1nc(C)c(CO)cc1N=C(NO)N1CCN(c2cc(F)cc(F)c2)CC1` [Example 127, N-Hydroxy-N′-(5-hydroxymethyl-2-methoxy-6-methylpyridin-3-yl)-[4-(3,5-difluorophenyl)piperazin-1-yl]carboxyimidamide], the “ED50 SK-MEL-2” value in experiment [1] worked out at 5 ng/mL (≈ 0.0123 µM). In addition, in experiment [2], the “ED50 XF-498” value came out at 6 ng/mL (≈ 0.0147 µM). In addition, in experiment [3], the “ED50 SK-OV-3” value turned out to be 11 ng/mL (≈ 0.027 µM). Also, the “ED50 A 549” value in experiment [4] was determined as 13 ng/mL (≈ 0.0319 µM). Further, the “ED50 HCT 15” value in experiment [5] was found to be 2 ng/mL (≈ 0.00491 µM).

With `COc1nc(C)c(C)nc1NC(=O)N1CCN(c2ccccc2SC)CC1` [Example 14, 1-[(5,6-Dimethyl-2-methoxypyrazin-3-yl)aminocarbonyl]-4-(2-methylthiophenyl)piperazine], the IC50 in experiment [1] amounted to 283 ng/mL (≈ 0.73 µM); in experiment [2], 340 ng/mL (≈ 0.877 µM); in experiment [3], 677 ng/mL (≈ 1.75 µM); in experiment [4], 204 ng/mL (≈ 0.526 µM); in experiment [5] it was 67 ng/mL (≈ 0.173 µM).

With `CCc1ccccc1N1CCN(C(=O)Nc2nc(C)c(C)nc2OC)CC1` [Example 4, 1-[(5,6-Dimethyl-2-methoxypyrazin-3-yl)aminocarbonyl]-4-(2-ethylphenyl)piperazine], the IC50 in experiment [1] came out at 42 ng/mL (≈ 0.114 µM); in experiment [2], 89 ng/mL (≈ 0.241 µM); in experiment [3], 251 ng/mL (≈ 0.679 µM); in experiment [4], 47 ng/mL (≈ 0.127 µM); in experiment [5], 38 ng/mL (≈ 0.103 µM).

In the case of “1-[(5,6-Dichloroethyl-2-methoxypyrazin-3-yl)aminocarbonyl]-4-(3,5-dimethylphenyl)piperazine [Example 34]”, the “ED50 SK-MEL-2” value in experiment [1] came to 0.3 ng/mL. Also, the “ED50 XF-498” value in experiment [2] came out at 2.1 ng/mL. Further, the “ED50 SK-OV-3” value in experiment [3] came out at 3.8 ng/mL. Also, the “ED50 A 549” value in experiment [4] is 2.3 ng/mL. Also, the “ED50 HCT 15” value in experiment [5] is 2.1 ng/mL.

As to `COc1nc2ccccc2nc1NC(=O)N1CCN(c2cc(F)cc(F)c2)CC1` [Example 46, 1-[(2-Methoxyquinoxalin-3-yl)aminocarbonyl]-4-(3,5-difluo-rophenyl)piperazine], in experiment [1], the “ED50 SK-MEL-2” value worked out at 3 ng/mL (≈ 0.00751 µM). In addition, the “ED50 XF-498” value in experiment [2] was 1 ng/mL (≈ 0.0025 µM). Also, in experiment [3], the “ED50 SK-OV-3” value worked out at 7 ng/mL (≈ 0.0175 µM). Also, the “ED50 A 549” value in experiment [4] came out at 2 ng/mL (≈ 0.00501 µM). Moreover, the “ED50 HCT 15” value in experiment [5] stood at 2 ng/mL (≈ 0.00501 µM).

Regarding `COc1cc(C)c(C)cc1N=C(NO)N1CCN(c2cc(C)cc(C)c2)CC1` [Example 180, N-Hydroxy-N′-(4,5-dimethyl-2-methoxyphenyl-1-yl)-[4-(3,5-dimethylphenyl)piperazin-1-yl]carboxyimidamide], the “ED50 SK-MEL-2” value in experiment [1] was 310 ng/mL (≈ 0.81 µM). Moreover, the “ED50 XF-498” value in experiment [2] is 240 ng/mL (≈ 0.627 µM). For the same compound, in experiment [3], the “ED50 SK-OV-3” value is 160 ng/mL (≈ 0.418 µM). Further, the “ED50 A 549” value in experiment [4] is 280 ng/mL (≈ 0.732 µM). In addition, in experiment [5], the “ED50 HCT 15” value came out at 160 ng/mL (≈ 0.418 µM).

For the compound `COc1cc(OC)cc(N2CCN(C(=Nc3cc(C(C)=O)c(C)nc3OC)NO)CC2)c1` [Example 133, N-Hydroxy-N′-(5-acetyl-2-methoxy-6-methylpyridin-3-yl)-[4-(3,5-dimethoxyphenyl)piperazin-1-yl]carboxyimidamide], the “ED50 SK-MEL-2” value in experiment [1] stood at 0.1 ng/mL (≈ 0.000225 µM). Moreover, the “ED50 XF-498” value in experiment [2] is 0.1 ng/mL (≈ 0.000225 µM). Moreover, in experiment [3], the “ED50 SK-OV-3” value stood at 0.1 ng/mL (≈ 0.000225 µM). Further, the “ED50 A 549” value in experiment [4] was 0.1 ng/mL (≈ 0.000225 µM). For the same compound, the “ED50 HCT 15” value in experiment [5] is 0.1 ng/mL (≈ 0.000225 µM).
